We go through two compounds from US20150344540A1, “NOVEL GLP-1 RECEPTOR AGONISTS WITH CHOLESTEROL EFFLUX ACTIVITY” (NOVO NORDISK A/S, priority 2012, published 2015).

For orientation: EC50 means the concentration giving half of the maximal effect. A word on the Vd: it is a proportionality between amount in the body and measured concentration, not a real space. High values mean wide distribution into tissue, low ones little distribution into tissue. As a reminder, the clearance is the volume of plasma or blood freed of the substance per unit of time. The low end stands for a low capacity for elimination, the high end for a high capacity for elimination. As a reminder, the half-life is how long it takes for the measured level to halve. The low end stands for fast loss, the high end for slow loss.

One data set addresses human GLP-1 receptor (Homo sapiens, UniProt P43220). In words: Functional GLP-1 receptor assay, in vitro potency (CRE luciferase; whole cells). In kind it is cell-based. The note with it: BHK cells expressing human GLP-1 receptor.
Data set [1] has as its system Mouse monocyte/macrophage cell line, RAW 264.7. As to the kind of experiment: Cholesterol efflux assay (3H-cholesterol, macrophage cell line). In kind it is cell-based. The note with it: RAW 264.7, 4 hrs incubation, 0.1% human serum albumin, ABCA1-mediated efflux.
Data set [2] can be described thus: Pharmacokinetics in mini-pigs after i.v. administration. To be noted: female, Göttingen, minipig, plasma, iv, 5 nmol/kg; for half-life: T1/2 Mean Value, Göttingen mini-pigs, N=3. The source says: The aim of the study is to assess the pharmacokinetic properties of the compounds of the invention, in mini-pigs.
Göttingen mini-pigs female, 15-20 kg, purchased from Ellegaard Mini-pigs, Denmark, were housed in the Animal Unit, Novo Nordisk A/S and were kept and handled according to normal procedure in the Animal Unit. After minimum 2 weeks of acclimatization two permanent central venous catheters were implemented in vena cava caudalis in each animal. After surgery the animals were in their normal individual pens during the pharmacokinetic experiments.
Intravenous injections were given through the central short catheter, which was flushed with min 10 ml of sterile saline post administration. The test substance was dosed at 5 nmol/kg, N=3, in a volume of 0.05 ml/kg.
On day 1 the catheters are coupled to extension tubes, which will be removed at the end of day 1.
Samples were kept on wet ice until centrifugation (10 min, 4° C., 1942 g). Afterwards, plasma (min. 100 μl) was transferred immediately to Micronic tubes and kept at −20° C. until analysis. The plasma samples were analysed by an immunoaasay described below.
The plasma concentrations of the peptides with intact N-terminus were determined using a Luminescence Oxygen Chanelling Immuno-assay (LOCI). The donor beads were coated with streptavidin, while acceptor beads were conjugated with a monoclonal antibody recognizing a mid-/C-terminal epitope of the peptide. The other monoclonal antibody, specific for the N-terminus, was biotinylated. The three reactants were combined with the analyte and formed a two-sited immuno-complex. Illumination of the complex released singlet oxygen atoms from the donor beads, which were channeled into the acceptor beads and triggered chemi-luminescence which was measured in an Envision plate reader. The amount of light was proportional to the concentration of the compound.
Plasma concentration-time profiles was analysed by a non-compartmental pharmacokinetics analysis using Phoenix (Pharsight Inc., Mountain View, Calif., USA). Calculations were performed using individual concentration-time values from each animal.

Where [3] appears, read: GLP1R CRE luc 1% HSA EC50 Mean Value, 1% HSA.

The structures appear in SMILES notation. Where two headings read alike, the source gives them in different places. Where a SMILES comes first, the peptide text is derived from it. [ ]: non-standard residue; d: D form. Aib = CC(C)(N)C(=O)O

Sequence of human GLP-1 receptor (P43220 24-463): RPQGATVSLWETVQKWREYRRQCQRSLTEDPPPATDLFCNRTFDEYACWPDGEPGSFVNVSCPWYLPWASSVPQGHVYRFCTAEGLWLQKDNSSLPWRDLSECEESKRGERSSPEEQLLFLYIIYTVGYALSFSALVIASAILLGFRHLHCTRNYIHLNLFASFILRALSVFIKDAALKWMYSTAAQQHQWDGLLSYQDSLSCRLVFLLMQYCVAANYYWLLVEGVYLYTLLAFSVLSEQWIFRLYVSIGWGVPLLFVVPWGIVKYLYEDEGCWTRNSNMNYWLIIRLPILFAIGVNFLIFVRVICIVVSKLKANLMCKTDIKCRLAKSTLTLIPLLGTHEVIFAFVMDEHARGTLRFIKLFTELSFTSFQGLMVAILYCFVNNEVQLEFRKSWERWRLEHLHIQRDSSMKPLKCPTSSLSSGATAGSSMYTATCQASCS

Turning to `CC[C@H](C)[C@H](NC(=O)[C@H](Cc1ccccc1)NC(=O)[C@H](CCC(=O)O)NC(=O)[C@H](CCCCN)NC(=O)[C@@H](NC(=O)[C@H](C)NC(=O)[C@H](CCC(=O)O)NC(=O)CNC(=O)[C@H](CCC(=O)O)NC(=O)[C@H](CC(C)C)NC(=O)[C@H](Cc1ccc(O)cc1)NC(=O)[C@H](CO)NC(=O)[C@H](CO)NC(=O)[C@@H](NC(=O)[C@H](CC(=O)O)NC(=O)[C@H](CO)NC(=O)[C@@H](NC(=O)[C@H](Cc1ccccc1)NC(=O)[C@@H](NC(=O)CNC(=O)[C@H](CCC(=O)O)NC(=O)C(C)(C)NC(=O)[C@@H](N)Cc1c[nH]cn1)[C@@H](C)O)[C@@H](C)O)C(C)C)C(C)C)C(=O)N[C@@H](C)C(=O)N[C@@H](Cc1c[nH]c2ccccc12)C(=O)N[C@@H](CC(C)C)C(=O)N[C@H](C(=O)N[C@@H](CCC(=O)O)C(=O)N[C@@H](CCCCN)C(=O)N[C@H](C(=O)N[C@@H](CCCCN)C(=O)N[C@@H](CCC(=O)O)C(=O)N[C@@H](CCCCN)C(=O)N[C@@H](CC(C)C)C(N)=O)C(C)C)C(C)C` [Compound 118, [Aib8,Glu23,Val25,Glu34,Lys35,Val36,Lys37]-GLP-1-(7-37)-peptidyl-Glu-Lys-Leu amide] (H-H[Aib]EGTFTSDVSSYLEGEAVKEFIAWLVEKVKEKL-NH2), the concentration for a half-maximal effect (EC50) at human GLP-1 receptor (0% HSA, read-out: GLP1R CRE luc 0% HSA EC50 Mean Value) was 0.059 nM. The response on human GLP-1 receptor (setting [3]) was half-maximal at 0.029 nM (EC50). For the same compound, the “4 h Cholesterol Efflux Emax” value in data set [1] turned out to be 136%. In data set [2], this compound gave a C0 of 62.9 nM, a Vd of 0.0809 L/kg, a clearance of 4.99 mL/h/kg and a half-life of 11.2 h.
`CC[C@H](C)[C@H](NC(=O)[C@H](Cc1ccccc1)NC(=O)[C@H](CCC(=O)O)NC(=O)[C@H](CCCCN)NC(=O)[C@@H](NC(=O)[C@H](CCCCN)NC(=O)[C@H](CCC(=O)O)NC(=O)CNC(=O)[C@H](CCC(=O)O)NC(=O)[C@H](CC(C)C)NC(=O)[C@H](Cc1ccc(O)cc1)NC(=O)[C@H](CO)NC(=O)[C@H](CO)NC(=O)[C@@H](NC(=O)[C@H](CC(=O)O)NC(=O)[C@H](CO)NC(=O)[C@@H](NC(=O)[C@H](Cc1ccccc1)NC(=O)[C@@H](NC(=O)CNC(=O)[C@H](CCC(=O)O)NC(=O)C(C)(C)NC(=O)[C@@H](N)Cc1c[nH]cn1)[C@@H](C)O)[C@@H](C)O)C(C)C)C(C)C)C(=O)N[C@@H](C)C(=O)N[C@@H](Cc1c[nH]c2ccccc12)C(=O)N[C@@H](CC(C)C)C(=O)N[C@H](C(=O)N[C@@H](CCC(=O)O)C(=O)NCC(=O)NC(C)(C)C(=O)N[C@@H](CCCCN)C(=O)N[C@@H](CCC(=O)O)C(=O)N[C@@H](Cc1ccccc1)C(=O)N[C@@H](CC(C)C)C(N)=O)C(C)C` [Compound 64, [Aib8,Glu23,Lys24,Val25,Glu34,Aib36,Lys37]-GLP-1-(7-37)-peptidyl-Glu-Phe-Leu amide] (H-H[Aib]EGTFTSDVSSYLEGEKVKEFIAWLVEG[Aib]KEFL-NH2): a half-maximal response on human GLP-1 receptor (setting [3]) (EC50) required 0.111 nM. In data set [1], the “4 h Cholesterol Efflux Emax” value turned out to be 100%. For the same compound, in data set [2], the C0 was determined as 86.9 nM, the Vd was 0.0879 L/kg, the clearance is 2.41 mL/h/kg and the half-life was 25.2 h.
